# Laboratory results from PMC11926786, “Effect of Lipidation on the Structure, Oligomerization, and Aggregation of Glucagon-like Peptide 1” (Bioconjugate Chemistry, 2025).
# “Also recorded” adds a separate entry of the source. Where two headings read alike, the source gives them in different places. *1 amine or outer side, *2 acyl side, *3 side chain or, on linkers, in order; H or OH if unused. Where a SMILES comes first, the peptide text is derived from it. Side-chain parts run from the residue outwards. The star is where a group is joined. γGlu = O=C(O)[C@H](CCC(=O)[*:2])N[*:1]; Palmitoyl = CCCCCCCCCCCCCCCC(=O)*
# Assays:
# [1] = cited from earlier work
# [2] = Sedimentation velocity analytical ultracentrifugation of oligomeric species; type: physicochemical; conditions: freshly prepared samples, pH 7.5; determined by both AUC and SEC
# Description: Sedimentation velocity experiments were performed using a Beckman Optima XL-I Analytical Ultracentrifuge equipped with an An-60 Ti rotor. Samples of 85 μM peptide concentration were freshly prepared before the measurement. After a 2 h temperature equilibration of samples in the centrifuge to 20 °C, the experiment was performed with centrifugation at 50,000 rpm. The interference sedimentation curves were collected as 150 scans (approximately 12 h run time) and fitted to a continuous c(s) distribution model implemented in the Sedfit program.[48],[52],[53] The sedimentation coefficient was corrected for the standard state of the water at 20 °C (s20,w). The molecular weight and relative amount of each detected species were calculated using the Sedfit program.
# [3] = Far-UV CD of freshly dissolved samples, α-helical content from MRE222; type: physicochemical; conditions: 85 μM, 25 mM phosphate pH 7.5, room temperature, estimated from MRE222
# [4] = Size-exclusion chromatography of oligomeric species; type: physicochemical; conditions: freshly prepared, 135 μM
# Description: Analytical SEC was performed on an KTA FPLC system (GE Healthcare), using a Superdex 200 Increase 10/300 column (GE Healthcare). Samples were loaded using a 200 μL loop. Prior to loading, the samples were filtered through a 0.22 μm filter (Millex, PVDF Membrane) to avoid blocking the column by large aggregates. All samples were eluted at a flow rate of 0.75 mL min^–1 at room temperature, and UV absorbance detection at 280 nm through a 0.5 cm flow cell was used. A set of globular protein standards (GE Healthcare) was used to construct a calibration curve for the column, Figure S9.
# Calibration curve for Superdex 200 Increase 10/300 column
# Globular protein standards (GE Healthcare) were used for column calibration, (Fig. S9C). The gel phase
# distribution parameter, Kav, of each protein standard was calculated as
# where Ve is an elution volume of a protein standard, V0 is the void volume of the column (determined
# used. The logarithm of the molecular weight of each protein standard was plotted against its Kav. A
# linear regression of this plot was used to determine the molecular weight of any eluting species
# For Stoke’s radius (RSt), a calibration plot of √−log(Kav) against
# RSt and a linear regression was used.
# Figure S9: Calibration of a Superdex 200 Increase 10/300 column. Calibrations on the molecular weight (A) and on the Stoke’s […]
# [5] = pH-dependent peptide solubility; type: physicochemical; conditions: from solid: ca. 0.5 mg lyophilized powder + 500 μL 25 mM phosphate, citrate or Tris; pH 2.5 to 8.5 in 0.5 steps; ca. 5 min, room temperature; 0.22 μm filtered; A280; soluble = concentrations above 50 μM, insoluble = not above 1 μM
# Description: Figure 1D illustrates the solubility of each lipidated analogue and nonlipidated GLP-1-Am at different pH values. […] Isoelectric points (pI) of the analogues were determined using isoelectric focusing gel electrophoresis (Figure S1), and the determined values are given in Figure 1D in the column next to the solubility chart. […] It is interesting to note that these both form well-defined oligomeric states (see later sections), in which it is likely that the local chemical environment of the individual ionizable groups has changed. […] Although there have been attempts to rationalize the solubility and even develop solubility predictors for peptide/protein analogs containing non-natural amino acids and amino acid derivatives, the prediction of the solubility of lipidated analogues remains challenging due to its complexity.[43],[44]
# The peptide solubility was tested in the individual buffers differing by 0.5 on the pH scale (i.e., pH 2.5, 3.0, 3.5, 4.0, ...). […] Subsequently, the concentration of the peptide was determined spectrophotometrically (Cary 60 UV–vis, Agilent Technologies) using the absorption at 280 nm and a theoretical extinction coefficient of 6990 M^–1 cm^–1 at 280 nm.
# [6] = Isoelectric point by isoelectric focusing gel electrophoresis; type: physicochemical; conditions: printed in Figure 1D
# Description: Figure 1D illustrates the solubility of each lipidated analogue and nonlipidated GLP-1-Am at different pH values. […] Isoelectric points (pI) of the analogues were determined using isoelectric focusing gel electrophoresis (Figure S1), and the determined values are given in Figure 1D in the column next to the solubility chart.
# [7] = set-up: method as in 2 sources, one per row (each row's own in cited_ref): ref Venanzi et al., 20 ||| ref 20 = [20]; PMID 32780784; doi:10.1039/D0SM01011A; Venanzi M.; Savioli M.; Cimino R.; Gatto E.; Palleschi A.; Ripani G.; Cicero D.; Placidi E.; Orvieto F.; Bianchi E. A Spectroscopic and Molecular Dynamics Study on the Aggregation Process of; conditions: semaglutide without C-terminal amidation, cited from earlier work
# [8] = Aggregation behaviour and aggregate morphology of aged samples (TEM, far-UV CD); type: physicochemical; conditions: 25 mM phosphate
molecule,measurement,setting,value
"liraglutide: marketed lipidated GLP-1 analogue, palmitic acid (C16) linked to Lys20 via a γ-glutamic acid spacer",half-life in vivo,[1]; pharmacokinetic data,9 to 13 h
CC[C@H](C)[C@H](NC(=O)[C@H](Cc1ccccc1)NC(=O)[C@H](CCC(=O)O)NC(=O)[C@H](CCCCN)NC(=O)[C@H](C)NC(=O)[C@H](C)NC(=O)[C@H](CCC(N)=O)NC(=O)CNC(=O)[C@H](CCC(=O)O)NC(=O)[C@H](CC(C)C)NC(=O)[C@H](Cc1ccc(O)cc1)NC(=O)[C@H](CO)NC(=O)[C@H](CO)NC(=O)[C@@H](NC(=O)[C@H](CC(=O)O)NC(=O)[C@H](CO)NC(=O)[C@@H](NC(=O)[C@H](Cc1ccccc1)NC(=O)[C@@H](NC(=O)CNC(=O)[C@H](CCC(=O)O)NC(=O)[C@H](C)NC(=O)[C@@H](N)Cc1cnc[nH]1)[C@@H](C)O)[C@@H](C)O)C(C)C)C(=O)N[C@@H](C)C(=O)N[C@@H](Cc1c[nH]c2ccccc12)C(=O)N[C@@H](CC(C)C)C(=O)N[C@H](C(=O)N[C@@H](CCCCN)C(=O)NCC(=O)N[C@@H](CCCNC(=N)N)C(=O)NCC(N)=O)C(C)C [GLP-1-Am],oligomerization,[2],"dimer and hexamer, less stable, detectable only by AUC, α-helical"
same,α-helix content,[3],21%
same,SEC peak elution volume(s),"[4]; 25 mM phosphate pH 7.5, Superdex 200 Increase 10/300, 0.75 mL min–1, room temperature, A280",19.2 mL
same,SEC n-mer,"[4]; 25 mM phosphate pH 7.5, Superdex 200 Increase 10/300, calculated from calibration with globular protein standards",1–2
same,pH range of solubility,[5],soluble at all pH values tested; also recorded: soluble over the entire range studied
same,isoelectric point (pI),[6],7.4
"semaglutide: marketed lipidated GLP-1 analogue, stearic diacid (C18) lipidation at Lys20",half-life in vivo,[1]; in vivo,170 h
same,oligomeric state,[7],equilibrium of monomers and dimers
same,aggregation on incubation,"[7]; ref Venanzi et al., 20",aggregation was observed after several weeks of incubation
GLP-1,half-life in vivo,[1]; in vivo,circa 2 min
"CCCCCCCCCCCCCCCC(=O)N[C@@H](CCC(=O)NCCCC[C@H](NC(=O)[C@@H](N)Cc1c[nH]cn1)C(=O)N[C@@H](CCC(=O)O)C(=O)NCC(=O)N[C@H](C(=O)N[C@@H](Cc1ccccc1)C(=O)N[C@H](C(=O)N[C@@H](CO)C(=O)N[C@@H](CC(=O)O)C(=O)N[C@H](C(=O)N[C@@H](CO)C(=O)N[C@@H](CO)C(=O)N[C@@H](Cc1ccc(O)cc1)C(=O)N[C@@H](CC(C)C)C(=O)N[C@@H](CCC(=O)O)C(=O)NCC(=O)N[C@@H](CCC(N)=O)C(=O)N[C@@H](C)C(=O)N[C@@H](C)C(=O)N[C@@H](CCCNC(=N)N)C(=O)N[C@@H](CCC(=O)O)C(=O)N[C@@H](Cc1ccccc1)C(=O)N[C@H](C(=O)N[C@@H](C)C(=O)N[C@@H](Cc1c[nH]c2ccccc12)C(=O)N[C@@H](CCCNC(=N)N)C(=O)N[C@H](C(=O)N[C@@H](CCCNC(=N)N)C(=O)NCC(=O)N[C@@H](CCCNC(=N)N)C(=O)NCC(N)=O)C(C)C)[C@@H](C)CC)C(C)C)[C@@H](C)O)[C@@H](C)O)C(=O)O [GLP-1-Am (2, γ-Glu-palm)] (H-HK([γGlu-Palmitoyl])EGTFTSDVSSYLEGQAAREFIAWRVRGRG-NH2)",aggregation at pH 3,[8],"rapidly aggregate forming short fibril-like species with high β-sheet content; also recorded: analogue not soluble; (at pH 3, there is rapid formation of β-structure-rich fibrils)"
